What was measured:
Assay type in all cases: in vivo
Parameters in all cases: key: 0 is no effect; 10 is complete control
[1] = tested on: cocklebur (Xanthium strumarium); assay: Test B pre-/postemergence
Procedure, shortened: (§1)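 Compounds in a surfactant-containing, non-phytotoxic solvent blend are applied to freshly planted seed (preemergence) and, concurrently, to seedlings of 2 to 18 cm at 1–4 leaves (postemergence). Plants stay in the greenhouse twelve to sixteen days and are then scored visually from 0 (no effect) to 10 (complete control).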

rape (Brassica napus) = assay: Test B pre-/postemergence
Procedure, shortened: as §1

wild oat (Avena fatua) = assay: Test B pre-/postemergence
Procedure, shortened: as §1

soybean (Glycine max) = assay: Test B pre-/postemergence
Procedure, shortened: as §1

[2] = tested on: momingglory (Ipomoea hederacea); assay: Test B pre-/postemergence
Procedure, shortened: as §1

[3] = tested on: purple nutsedge (Cyperus rotundus); assay: Test B pre-/postemergence
Procedure, shortened: as §1

[4] = tested on: giant foxtail (Setaria faberii); assay: Test B pre-/postemergence; conditions: for Plant response rating, Giant foxtail: Postemergence; for Giant foxtail plant response rating: Preemergence
Procedure, shortened: as §1

[5] = tested on: blackgrass (Alopecurus myosuroides); assay: Test B pre-/postemergence
Procedure, shortened: as §1

[6] = tested on: velvetleaf (Abutilon theophrasti); assay: Test B pre-/postemergence
Procedure, shortened: as §1

[7] = tested on: broadleaf signalgrass (Brachiaria decumbens); assay: Test B pre-/postemergence
Procedure, shortened: as §1

[8] = tested on: bedstraw (Galium aparine); assay: Test B pre-/postemergence
Procedure, shortened: as §1

[9] = tested on: sugar beet (Beta vulgaris); assay: Test B pre-/postemergence
Procedure, shortened: as §1

corn (Zea mays) = assay: Test B pre-/postemergence
Procedure, shortened: as §1

[10] = tested on: wheat (Triticum aestivum); assay: Test B pre-/postemergence
Procedure, shortened: as §1

[11] = tested on: crabgrass (Digitaria sanguinalis); assay: Test B pre-/postemergence
Procedure, shortened: as §1

[12] = tested on: pigweed (Amaranthus retroflexus); assay: Test B pre-/postemergence
Procedure, shortened: as §1

rice (Oryza sativa) = assay: Test B flood test
Procedure, shortened: (§2)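 Read-out is a visual response score from 0 (no effect) to 10 (complete control), assigned by comparison with untreated controls. Treatment was applied at the 2-leaf stage, and plants stayed in the greenhouse for twelve to sixteen days before scoring.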

[13] = tested on: bamyardgrass (Echinochloa crus-galli); assay: Test B flood test
Procedure, shortened: as §2

[14] = tested on: smallflower flatsedge (Cyperus difformis); assay: Test B flood test
Procedure, shortened: as §2

[15] = tested on: duck salad (Heteranthera limosa); assay: Test B flood test
Procedure, shortened: as §2

[16] = Rate 62 g/ha, Postemergence (flood test)
[17] = Rate 125 g/ha, Postemergence, flood test
[18] = Rate 250 g/ha, Postemergence (flood test species)

## COC(=O)C(c1cccc(C(F)(F)F)c1)c1nc(-c2ccc(C(F)(F)F)cc2)ncc1C (racemic) [Compound 18]
[1]; Rate 62 g/ha, Postemergence
  Plant response rating, Cocklebur: 6
[1]; Rate 125 g/ha, Postemergence
  Plant response rating, Cocklebur: 7
[1]; Rate 250 g/ha, Postemergence
  Plant response rating, Cocklebur: 8
[1]; Rate 250 g/ha, Preemergence
  Plant response rating, Cocklebur: 0
Rape (Brassica napus); Rate 62 g/ha, Postemergence
  Plant response rating, Rape: 4
Rape (Brassica napus); Rate 62 g/ha, Preemergence
  Rape plant response rating: 0
Rape (Brassica napus); Rate 125 g/ha, Postemergence
  Plant response rating, Rape: 7
Rape (Brassica napus); Rate 125 g/ha, Preemergence
  Rape plant response rating: 0
Rape (Brassica napus); Rate 250 g/ha, Postemergence
  Plant response rating, Rape: 9
Rape (Brassica napus); Rate 250 g/ha, Preemergence
  Plant response rating, Rape: 0
Wild oat (Avena fatua); Rate 62 g/ha, Postemergence
  Plant response rating, Wild oats: 3
Wild oat (Avena fatua); Rate 62 g/ha, Preemergence
  Wild oats plant response rating: 2
Wild oat (Avena fatua); Rate 125 g/ha, Postemergence
  Plant response rating, Wild oats: 5
Wild oat (Avena fatua); Rate 125 g/ha, Preemergence
  Wild oats plant response rating: 3
Wild oat (Avena fatua); Rate 250 g/ha, Postemergence
  Plant response rating, Wild oats: 5
Wild oat (Avena fatua); Rate 250 g/ha, Preemergence
  Plant response rating, Wild oats: 5
Soybean (Glycine max); Rate 62 g/ha, Postemergence
  Plant response rating, Soybean: 3
Soybean (Glycine max); Rate 62 g/ha, Preemergence
  Soybean plant response rating: 0
Soybean (Glycine max); Rate 125 g/ha, Postemergence
  Plant response rating, Soybean: 4
Soybean (Glycine max); Rate 125 g/ha, Preemergence
  Soybean plant response rating: 0
Soybean (Glycine max); Rate 250 g/ha, Postemergence
  Plant response rating, Soybean: 6
Soybean (Glycine max); Rate 250 g/ha, Preemergence
  Plant response rating, Soybean: 0
[2]; Rate 62 g/ha, Postemergence
  Plant response rating, Morningglory: 3
[2]; Rate 62 g/ha, Preemergence
  Morningglory plant response rating: 1
[2]; Rate 125 g/ha, Postemergence
  Plant response rating, Morningglory: 8
[2]; Rate 125 g/ha, Preemergence
  Morningglory plant response rating: 4
[2]; Rate 250 g/ha, Postemergence
  Plant response rating, Morningglory: 8
[2]; Rate 250 g/ha, Preemergence
  Plant response rating, Morningglory: 6
[3]; Rate 62 g/ha, Postemergence
  Plant response rating, Nutsedge: 0
[3]; Rate 62 g/ha, Preemergence
  Nutsedge plant response rating: 0
[3]; Rate 125 g/ha, Postemergence
  Plant response rating, Nutsedge: 0
[3]; Rate 125 g/ha, Preemergence
  Nutsedge plant response rating: 0
[3]; Rate 250 g/ha, Postemergence
  Plant response rating, Nutsedge: 0
[3]; Rate 250 g/ha, Preemergence
  Plant response rating, Nutsedge: 0
[4]; Rate 62 g/ha
  Plant response rating, Giant foxtail: 1
  Giant foxtail plant response rating: 0
[4]; Rate 125 g/ha
  Plant response rating, Giant foxtail: 1
  Giant foxtail plant response rating: 0
[4]; Rate 250 g/ha
  Plant response rating, Giant foxtail: 1
[5]; Rate 62 g/ha, Postemergence
  Plant response rating, Blackgrass: 2
[5]; Rate 62 g/ha, Preemergence
  Blackgrass plant response rating: 0
[5]; Rate 125 g/ha, Postemergence
  Plant response rating, Blackgrass: 2
[5]; Rate 125 g/ha, Preemergence
  Blackgrass plant response rating: 0
[5]; Rate 250 g/ha, Postemergence
  Plant response rating, Blackgrass: 2
[5]; Rate 250 g/ha, Preemergence
  Plant response rating, Blackgrass: 1
[6]; Rate 62 g/ha, Postemergence
  Plant response rating, Velvetleaf: 5
[6]; Rate 62 g/ha, Preemergence
  Velvetleaf plant response rating: 0
[6]; Rate 125 g/ha, Postemergence
  Plant response rating, Velvetleaf: 6
[6]; Rate 125 g/ha, Preemergence
  Velvetleaf plant response rating: 0
[6]; Rate 250 g/ha, Postemergence
  Plant response rating, Velvetleaf: 7
[6]; Rate 250 g/ha, Preemergence
  Plant response rating, Velvetleaf: 0
[7]; Rate 62 g/ha, Postemergence
  Plant response rating, B. signalgrass: 2
[7]; Rate 62 g/ha, Preemergence
  B. signalgrass plant response rating: 0
[7]; Rate 125 g/ha, Postemergence
  Plant response rating, B. signalgrass: 2
[7]; Rate 125 g/ha, Preemergence
  B. signalgrass plant response rating: 1
[7]; Rate 250 g/ha, Postemergence
  Plant response rating, B. signalgrass: 3
[7]; Rate 250 g/ha, Preemergence
  Plant response rating, B. signalgrass: 2
[8]; Rate 62 g/ha, Postemergence
  Plant response rating, Bedstraw: 7
[8]; Rate 62 g/ha, Preemergence
  Bedstraw plant response rating: 0
[8]; Rate 125 g/ha, Postemergence
  Plant response rating, Bedstraw: 8
[8]; Rate 125 g/ha, Preemergence
  Bedstraw plant response rating: 2
[8]; Rate 250 g/ha, Postemergence
  Plant response rating, Bedstraw: 9
[8]; Rate 250 g/ha, Preemergence
  Plant response rating, Bedstraw: 5
[9]; Rate 62 g/ha, Postemergence
  Plant response rating, Sugarbeets: 7
[9]; Rate 62 g/ha, Preemergence
  Sugarbeets plant response rating: 3
[9]; Rate 125 g/ha, Postemergence
  Plant response rating, Sugarbeets: 7
[9]; Rate 125 g/ha, Preemergence
  Sugarbeets plant response rating: 6
[9]; Rate 250 g/ha, Postemergence
  Plant response rating, Sugarbeets: 9
[9]; Rate 250 g/ha, Preemergence
  Plant response rating, Sugarbeets: 6
Corn (Zea mays); Rate 62 g/ha, Postemergence
  Plant response rating, Corn: 2
Corn (Zea mays); Rate 62 g/ha, Preemergence
  Corn plant response rating: 0
Corn (Zea mays); Rate 125 g/ha, Postemergence
  Plant response rating, Corn: 2
Corn (Zea mays); Rate 125 g/ha, Preemergence
  Corn plant response rating: 0
Corn (Zea mays); Rate 250 g/ha, Postemergence
  Plant response rating, Corn: 2
Corn (Zea mays); Rate 250 g/ha, Preemergence
  Plant response rating, Corn: 0
[10]; Rate 62 g/ha, Postemergence
  Plant response rating, Wheat: 1
[10]; Rate 62 g/ha, Preemergence
  Wheat plant response rating: 0
[10]; Rate 125 g/ha, Postemergence
  Plant response rating, Wheat: 3
[10]; Rate 125 g/ha, Preemergence
  Wheat plant response rating: 0
[10]; Rate 250 g/ha, Postemergence
  Plant response rating, Wheat: 3
[10]; Rate 250 g/ha, Preemergence
  Plant response rating, Wheat: 0
[11]; Rate 62 g/ha, Postemergence
  Plant response rating, Crabgrass: 1
[11]; Rate 62 g/ha, Preemergence
  Crabgrass plant response rating: 0
[11]; Rate 125 g/ha, Postemergence
  Plant response rating, Crabgrass: 2
[11]; Rate 125 g/ha, Preemergence
  Crabgrass plant response rating: 0
[11]; Rate 250 g/ha, Postemergence
  Plant response rating, Crabgrass: 3
[11]; Rate 250 g/ha, Preemergence
  Plant response rating, Crabgrass: 6
[12]; Rate 62 g/ha, Postemergence
  Plant response rating, Redroot pigweed: 6
[12]; Rate 62 g/ha, Preemergence
  Redroot pigweed plant response rating: 0
[12]; Rate 125 g/ha, Postemergence
  Plant response rating, Redroot pigweed: 6
[12]; Rate 125 g/ha, Preemergence
  Redroot pigweed plant response rating: 3
[12]; Rate 250 g/ha, Postemergence
  Plant response rating, Redroot pigweed: 9
[12]; Rate 250 g/ha, Preemergence
  Plant response rating, Redroot pigweed: 7
Rice (Oryza sativa); [16]
  Plant response rating, Rice: 1
Rice (Oryza sativa); [17]
  Plant response rating, Rice: 0
Rice (Oryza sativa); [18]
  Plant response rating, Rice: 0
[13]; [16]
  Plant response rating, Barnyardgrass: 2
[13]; [17]
  Plant response rating, Barnyardgrass: 1
[13]; [18]
  Plant response rating, Barnyardgrass: 2
[14]; [16]
  Plant response rating, S. Flatsedge: 9
[14]; [17]
  Plant response rating, S. Flatsedge: 1
[14]; [18]
  Plant response rating, S. Flatsedge: 2
[15]; [16]
  Plant response rating, Ducksalad: 1
[15]; [17]
  Plant response rating, Ducksalad: 2
[15]; [18]
  Plant response rating, Ducksalad: 2
